Assay results from publication PMC12118597 (Science Advances, 2025).
Like-named read-outs stand apart in the source and are kept apart here.

Target: SARS-CoV-2 NSP3 macrodomain (Mac1) (Severe acute respiratory syndrome coronavirus 2, UniProt P0DTD1)
Format: binding
Settings: for 1-BDC: PanDDA background density correction factor; for Total number of conformations: ligand conformations modeled in the crystal structure; for 2*(1-BDC) (%): occupancy estimate from PanDDA; for Refined ligand occupancy (%): refined crystallographic occupancy
[1] = TRUE = crystal structure with ligand obtained
[2] = crystal soak 10 mM, P43 crystal form
[3] = site of ligand in X-ray crystal structure
[4] = ligand-bound crystal structure obtained (TRUE)
[5] = site occupied in X-ray crystal structure
[6] = crystal soak 10 mM, TFA/DMSO background map

Compound | Occupancy difference (refined_occupancy - 2*(1-BDC)) | 1-BDC | X-ray crystal structure [1] | PanDDA run, overall: Hit [2] | PanDDA run, overall: Modeled [2] | PanDDA run, DMSO background map: 1-BDC (crystal soak 10 mM) | PanDDA run, DMSO background map: Hit (crystal soak 10 mM) | Total number of conformations | 2*(1-BDC) (%) | Refined ligand occupancy (%) | Binding site [3] | PanDDA run, overall: Modeling comment [2] | X-ray crystal structure [4] | Binding site [5] | PanDDA run, overall: Modeling comment (crystal soak 10 mM) | PanDDA run, TFA/DMSO background map: 1-BDC [6] | PanDDA run, TFA/DMSO background map: Hit [6]
O=C(O)C(F)(F)F.OCC1(Nc2ncnc3[nH]ccc23)CC1 [AVI-3688] | 20 | 0.2 | TRUE | TRUE | TRUE | 0.2 | TRUE | 1 | 40% | 60% | Adenosine |  |  |  |  |  | 
OCC(CC1CCCCC1)Nc1ncnc2[nH]ccc12 (stereo not shown) [AVI-3690] | 0 | 0.12 | TRUE | TRUE | TRUE | 0.12 | TRUE | 1 | 24% | 24% | Adenosine | Weak density for alternative ligand conformation |  |  |  |  | 
OCC(CC1CCCC1)Nc1ncnc2[nH]ccc12 (stereo not shown) [AVI-3691] | -16 | 0.18 | TRUE | TRUE | TRUE | 0.18 | TRUE | 1 | 36% | 20% | Adenosine |  |  |  |  |  | 
OCC(Nc1ncnc2[nH]ccc12)C1CCc2ccccc21 (stereo not shown) [AVI-3693] | 16 | 0.22 | TRUE | TRUE | TRUE | 0.22 | TRUE | 2 | 44% | 60% | Adenosine |  |  |  |  |  | 
OCC(Cc1ccccn1)Nc1ncnc2[nH]ccc12 (stereo not shown) [AVI-3696] | 14 | 0.13 | TRUE | TRUE | TRUE | 0.13 | TRUE | 2 | 26% | 40% | Adenosine |  |  |  |  |  | 
OCC(O)C1CCCN1c1ncnc2[nH]ccc12 (stereo not shown) [AVI-3701] | 0 | 0.18 |  | TRUE |  | 0.18 | TRUE | 1 | 36% | 36% |  |  | TRUE | Adenosine |  |  | 
O=C(O)C(F)(F)F.OC[C@H]1CC2(CN1c1ncnc3[nH]ccc13)OCCO2 [AVI-3702] | 0 | 0.21 |  | TRUE |  | 0.21 | TRUE | 1 | 42% | 42% |  |  | TRUE | Adenosine |  |  | 
OCC(Cc1cncs1)Nc1ncnc2[nH]ccc12 (stereo not shown) [AVI-3703] | 0 | 0.15 | TRUE | TRUE |  | 0.15 | TRUE | 1 | 30% | 30% | Adenosine |  |  |  |  |  | 
OCC(Cc1ccoc1)Nc1ncnc2[nH]ccc12 (stereo not shown) [AVI-3705] | 0 | 0.21 | TRUE | TRUE |  | 0.21 | TRUE | 1 | 42% | 42% | Adenosine |  |  |  |  |  | 
O=C(O)C(F)(F)F.OCC(Cc1cccc(F)c1)Nc1ncnc2[nH]ccc12 (stereo not shown) [AVI-3706] |  |  |  |  |  |  |  |  |  |  |  |  |  |  | TFA only |  | 
OCC1CC2(CCOCC2)CN1c1ncnc2[nH]ccc12 (stereo not shown) [AVI-3707] | 0 | 0.21 |  | TRUE |  | 0.21 | TRUE | 1 | 42% | 42% |  |  | TRUE | Adenosine | Distal site, weak density, not modeled |  | 
OCC(COCc1ccccc1)Nc1ncnc2[nH]ccc12 (stereo not shown) [AVI-3709] | 0 | 0.19 | TRUE | TRUE |  | 0.19 | TRUE | 2 | 38% | 38% | Adenosine |  |  |  |  |  | 
O=C(O)C(F)(F)F.OC[C@@H]1CC2(CC2)CN1c1ncnc2[nH]ccc12 [AVI-3710] | 0 | 0.26 |  | TRUE |  | 0.26 | TRUE | 2 | 52% | 52% |  |  | TRUE | Adenosine | Weak density for open state of Phe132 loop |  | 
OCC(Cc1cccs1)Nc1ncnc2[nH]ccc12 (stereo not shown) [AVI-3711] | 0 | 0.21 | TRUE | TRUE |  | 0.21 | TRUE | 1 | 42% | 42% | Adenosine |  |  |  |  |  | 
O=C(O)C(F)(F)F.OCC1C2C=CC(C2)N1c1ncnc2[nH]ccc12 (stereo not shown) [AVI-3712] |  |  |  | TRUE |  | 0.15 | TRUE |  |  |  |  |  |  |  | Weak density, not modeled | 0.05 | TRUE
CC(C)(C)C(O)CC(CO)Nc1ncnc2[nH]ccc12.O=C(O)C(F)(F)F (stereo not shown) [AVI-3714] |  |  |  |  |  |  |  |  |  |  |  |  |  |  | TFA only |  | 
OCC(Nc1ncnc2[nH]ccc12)c1ccccc1 (stereo not shown) [AVI-3715] | 0 | 0.18 | TRUE | TRUE |  | 0.18 | TRUE | 1 | 36% | 36% | Adenosine |  |  |  |  |  | 
OCC1COCCN1c1ncnc2[nH]ccc12 (stereo not shown) [AVI-3717] | 0 | 0.14 |  | TRUE |  | 0.14 | TRUE | 2 | 28% | 28% |  |  | TRUE | Adenosine |  |  | 
